Measurements published in patent US8642657B2 (Gruenenthal GmbH, priority 2003, dated 2014).

How the values were obtained:
rat VR1 [1] = molecular target: T1, rat VR1 (Rattus norvegicus, UniProt O35433); experiment: [3H]resiniferatoxin (RTX) competition binding assay, VR1-transfected CHO cells
T1 construct: expressed in transfected cells
Outline: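 Competition with [3H]RTX (50-100 pM) ran 60 min at 37° C using whole VR1-induced CHO cells in BSA-containing DPBS, nonspecific defined by 100 nM cold RTX. After centrifugation, pellet radioactivity counted by scintillation; Hill fits gave Ki and cooperativity.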

rat VR1 [2] = molecular target: T1, rat VR1; experiment: 45Ca2+-uptake assay in CHO/VR1 cells, antagonism of capsaicin-stimulated uptake; assay type: cell-based; conditions: 45Ca2+ uptake stimulated by 50 nM capsaicin
Method: Initial stocks were dissolved in DMSO. For the binding assays, compounds were diluted in with DPBS with Ca^2+ and Mg^2+ and 0.25 mg/mL bovine serum albumin. For the calcium uptake assays, compounds were diluted in DMEM with 0.25 mg/mL bovine serum albumin.
Molecules were characterized to determine whether they were full agonists, partial agonists, or antagonists. For studies of ^45Ca^2+ uptake by CHO/VR1 cells (Tet-off cells), the cells were plated in 24-well plates to yield a cell density 20-40% of that required to produce confluence. The next day the medium was changed to remove the tetracycline and induce VR1 expression. Experiments were performed approximately 36-40 hours after induction. For ^45Ca^2+ uptake assay, cells were incubated for 5 min at 37° C. in a total volume of 400 μL of serum free DMEM (containing 1.8 mM CaCl2) in the presence of 0.25 mg/mL BSA (Sigma), 1 μCi/mL ^45Ca^2+ (5-30 Ci/g from ICN, CA), and increasing concentrations of the compound to be tested. Immediately after the incubation, extracellular ^45Ca^2+ was removed by washing the cells three times with cold DPBS (containing 1.8 mM CaCl2). Then 400 μl RIPA buffer (50 mM Tris pH 7.4; 150 mM NaCl; 1% Triton X-100; 0.1% SDS; 1% sodium deoxycholate) was added to each well in order to lyse the cells. Plates were shaken slowly for 20 min; then 306 μL of cell lysate was transferred from each well into a scintillation vial and radioactivity was determined by scintillation counting. For each data point in each experiment, four wells were assayed. Data from these experiments were analyzed by computer fit to the Hill equation. At least 3 separate experiments were carried out for each compound. In order to determine antagonist activity, studies were performed in exactly the same fashion with the exception that 50 nM capsaicin was added to the assay mixture to stimulate ^45Ca^2+ uptake.

[3] = competition with [3H]RTX, rat VR1 in CHO cells, read-out: Ki (nM) Binding Affinity

T1 sequence (O35433 whole entry): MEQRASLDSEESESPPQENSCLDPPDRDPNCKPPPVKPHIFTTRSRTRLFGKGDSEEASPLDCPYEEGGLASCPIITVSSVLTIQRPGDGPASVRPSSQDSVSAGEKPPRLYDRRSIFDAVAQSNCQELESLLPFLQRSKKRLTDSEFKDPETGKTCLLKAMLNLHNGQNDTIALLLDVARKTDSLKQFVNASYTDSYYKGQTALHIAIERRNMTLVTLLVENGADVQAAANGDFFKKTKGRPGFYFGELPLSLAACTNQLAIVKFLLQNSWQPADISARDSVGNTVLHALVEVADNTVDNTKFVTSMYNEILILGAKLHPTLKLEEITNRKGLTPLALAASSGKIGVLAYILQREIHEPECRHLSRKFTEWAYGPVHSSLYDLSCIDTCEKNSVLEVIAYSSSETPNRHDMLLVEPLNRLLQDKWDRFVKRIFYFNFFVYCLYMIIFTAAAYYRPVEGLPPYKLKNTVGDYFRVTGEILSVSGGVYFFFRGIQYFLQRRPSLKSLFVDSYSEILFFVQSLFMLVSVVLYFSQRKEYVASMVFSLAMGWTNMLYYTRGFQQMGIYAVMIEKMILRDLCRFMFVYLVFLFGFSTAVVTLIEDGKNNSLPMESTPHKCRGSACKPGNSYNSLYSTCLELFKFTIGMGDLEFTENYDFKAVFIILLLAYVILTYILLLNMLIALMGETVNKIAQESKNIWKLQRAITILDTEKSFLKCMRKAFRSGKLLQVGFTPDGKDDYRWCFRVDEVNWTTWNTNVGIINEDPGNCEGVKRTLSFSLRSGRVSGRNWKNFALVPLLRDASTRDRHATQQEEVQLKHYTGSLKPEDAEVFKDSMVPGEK

SMILES	Ki (rat VR1 [1]; [3]) [nM]	Ki (rat VR1 [2]) [nM]	melting point [°C]	Ki (rat VR1 [1]) [nM]
COc1cc(C(C)NC(=S)NCc2ccc(C(C)(C)C)cc2)ccc1NS(C)(=O)=O (stereo not drawn) [15-3, N-(4-t-Butylbenzyl)-N′-{1-[3-methoxy-4-(methylsulfonylamino)phenyl]ethyl}thiourea]	66.5	28.6	80 to 82	–
CC(C(=O)NCc1ccc(C(C)(C)C)cc1)c1ccc(NS(C)(=O)=O)cc1Cl (stereo not drawn) [1-67, N-(4-tert-Butylbenzyl)-2-[2-chloro-4-(methylsulfonylamino)phenyl]propionamide]	1420	4480	134 to 136	–
CC(C(=O)NCC(COC(=O)C(C)(C)C)Cc1ccc(C(C)(C)C)cc1)c1ccc(NS(C)(=O)=O)c(Cl)c1 (stereo not drawn) [5-8, N-[2-(4-tert-Butylbenzyl)-3-pivaloyloxypropyl]-2-[3-chloro-4-(methylsulfonylamino)phenyl]propionamide]	3.62	12.3	142 to 144	–
CC(C)(C)c1ccc(CNC(=S)NC2(c3ccc(NS(C)(=O)=O)cc3)CC2)cc1 [22-7, N-(4-t-Butylbenzyl)-N′-{1-[4-(methylsulfonylamino)phenyl]cyclopropyl}thiourea]	171	60.3	110 to 113	–
CC(C(=O)NCc1ccc(Cl)c(Cl)c1)c1ccc(NS(C)(=O)=O)cc1 (stereo not drawn) [2-9, N-(3,4-Dichlorobenzyl)-2-[4-(methylsulfonylamino)phenyl]propionamide]	–	253	130	1650
COC(=O)c1cc(C(C)NC(=S)NCc2ccc(C(C)(C)C)cc2)ccc1NS(C)(=O)=O (stereo not drawn) [15-4, N-(4-t-Butylbenzyl)-N′-{1-[3-(methoxycarbonyl)-4-(methylsulfonylamino)phenyl]ethyl}thiourea]	–	65.8	132 to 135	163
Cc1ccc(CC(CNC(=O)C(C)c2ccc(NS(C)(=O)=O)c(Cl)c2)COC(=O)C(C)(C)C)cc1C (stereo not drawn) [5-7, N-[2-(3,4-Dimethylbenzyl)-3-pivaloyloxypropyl]-2-[3-chloro-4-(methylsulfonylamino)phenyl]propionamide]	11.3	35.7	127 to 129	–
Cc1ccc(CC(CNC(=O)C(C)(C)c2ccc(NS(C)(=O)=O)cc2)COC(=O)C(C)(C)C)cc1C (stereo not drawn) [9-1, N-[2-(3,4-Dimethylbenzyl)-3-pivaloyloxypropyl]-2-[4-(methylsulfonylamino)phenyl]-2-methylpropionamide]	372	103	126 to 130	–
CC(C(=O)NCC=C1c2ccccc2CCc2ccccc21)c1ccc(NS(C)(=O)=O)c(F)c1 (stereo not drawn) [4-28, N-[2-(10,11-Dihydro-5H-dibenzo[a,d]cyclohepten-5-yliden)ethyl]-2-[3-fluoro-4-(methylsulfonylamino)phenyl]propionamide]	141	121	67 to 69	–
Cc1ccc(C(=CCNC(=O)C(C)c2ccc(NS(C)(=O)=O)c(F)c2)c2ccc(C)cc2)cc1 (stereo not drawn) [4-26, N-[3,3-Di(4-methylphenyl)-2-propenyl]-2-[3-fluoro-4-(methylsulfonylamino)phenyl]propionamide]	–	8.03	163 to 165	36
CC(C(=O)NCC(COC(=O)C(C)(C)C)Cc1ccc(C(C)(C)C)cc1)c1ccc(NS(C)(=O)=O)cc1 (stereo not drawn) [5-2, N-[2-(4-t-Butylbenzyl)-3-pivaloyloxypropyl]-2-[4-(methylsulfonylamino)phenyl]propionamide]	55.2	52	97 to 100	–
COc1cc(C(C)(C)NC(=S)NCc2ccc(C(C)(C)C)cc2)ccc1NS(C)(=O)=O [21-9, N-(4-t-Butylbenzyl)-N′-{1-methyl-1-[3-methoxy-4-(methylsulfonylamino)phenyl]ethyl}thiourea]	2890	663	148 to 150	–
CC(C(=O)NCc1ccc(C(F)(F)F)cc1)c1ccc(NS(C)(=O)=O)c(F)c1 (stereo not drawn) [4-10, N-(4-Trifluoromethylbenzyl)-2-[3-fluoro-4-(methylsulfonylamino)phenyl]propionamide]	657	274	150 to 152	–
CC(NC(=O)NCc1ccc(C(C)(C)C)cc1)c1ccc(NS(C)(=O)=O)cc1 (stereo not drawn) [23-1, N-(4-t-Butylbenzyl)-N′-{1-[4-(methylsulfonylamino)phenyl]ethyl}urea]	–	544	95 to 98	1190
CC(NC(=O)C=Cc1ccc(Cl)cc1)c1ccc(NS(C)(=O)=O)c(F)c1 (stereo not drawn) [24-7, N-{1-[3-Fluoro-4-(methylsulfonylamino)phenyl]ethyl}-3-(4-chlorophenyl)-2-propenamide]	–	938	219 to 221	773
C[C@@H](C(=O)NC[C@@H](COC(=O)C(C)(C)C)Cc1ccc(C(C)(C)C)cc1)c1ccc(NS(C)(=O)=O)c(F)c1 [6-11, N-[(2S)-2-(4-t-Butylbenzyl)-3-(pivaloyloxy)propyl]-(2R)-2-[3-fluoro-4-(methylsulfonylamino)phenyl]propionamide]	63.8	142	44 to 46	–
CC(C)C(NC(=S)NCc1ccc(C(C)(C)C)cc1)c1ccc(NS(C)(=O)=O)c(F)c1 (stereo not drawn) [20-13, N′-(4-t-Butylbenzyl)-N-{1-[4-(methylsulfonylamino)-3-fluorophenyl]-2-methylpropyl}thiourea]	338	223	84	–
C[C@H](C(=O)NC[C@H](COC(=O)C(C)(C)C)Cc1ccc(C(C)(C)C)cc1)c1ccc(NS(C)(=O)=O)c(Cl)c1 [6-13, N-[(2R)-2-(4-t-Butylbenzyl)-3-(pivaloyloxy)propyl]-(2S)-2-[3-chloro-4-(methylsulfonylamino)phenyl]propionamide]	1.83	5.23	61 to 63	–
Cc1ccc(CCCNC(=O)C(C)(C)c2ccc(NS(C)(=O)=O)c(F)c2)cc1C [9-5, N-[3-(3,4-Dimethylphenyl)propyl]-2-[3-fluoro-4-(methylsulfonylamino)phenyl]-2-methylpropionamide]	–	418	145 to 146	960
Cc1ccc(CC(CNC(=O)C(C)c2ccc(NS(C)(=O)=O)c(F)c2)COC(=O)C(C)(C)C)cc1C (stereo not drawn) [5-3, 2-[3-Fluoro-4-(methylsulfonylamino)phenyl]-N-[2-(3,4-dimethylbenzyl)-3-pivaloyloxypropyl]propionamide]	33.1	10.8	46 to 48	–
CC(C(=O)NCCc1ccc(C(C)(C)C)cc1)c1ccc(NS(C)(=O)=O)c(F)c1 (stereo not drawn) [4-14, N-[2-(4-t-Butylphenyl)ethyl]-2-[3-fluoro-4-(methylsulfonylamino)phenyl]propionamide]	553	42.6	124 to 126	–
CC(C(=O)NCc1ccc(Cl)c(Cl)c1)c1ccc(NS(C)(=O)=O)c(Br)c1 (stereo not drawn) [4-6, N-(3,4-Dichlorobenzyl)-2-[3-bromo-4-(methylsulfonylamino)phenyl]propionamide]	–	89.6	161 to 162	226
C[C@@H](NC(=S)NC[C@@H](COC(=O)C(C)(C)C)Cc1ccccc1)c1ccc(NS(C)(=O)=O)cc1 [18-2, N-[(2S)-2-Benzyl-3-(pivaloyloxy)propyl]-N′-{(1R)-1-[4-(methylsulfonylamino)phenyl]ethyl}thiourea]	–	89	58 to 62	19.4
CC(C(=O)NCC(c1ccccc1)c1ccccc1)c1ccc(NS(C)(=O)=O)c(F)c1 (stereo not drawn) [4-23, N-(2,2-Diphenylethyl)-2-[3-fluoro-4-(methylsulfonylamino)phenyl]propionamide]	1700	2490	129	–
C[C@H](C(=O)N[C@@H](COC(=O)C(C)(C)C)Cc1ccccc1)c1ccc(NS(C)(=O)=O)c(F)c1 [6-1, N—[(R)-1-Benzyl-2-(pivaloyloxy)ethyl]-(S)-2-[3-fluoro-4-(methylsulfonylamino)phenyl]propionamide]	12800	1470	115	–
CC(C(=O)NCc1ccc(Cl)c(Cl)c1)c1ccc(NS(C)(=O)=O)c(Cl)c1 (stereo not drawn) [4-5, N-(3,4-Dichlorobenzyl)-2-[3-chloro-4-(methylsulfonylamino)phenyl]propionamide]	–	176	129 to 130	289
